Values quoted from earlier work as cited in EP3913370A1, “METHOD FOR DIAGNOSING CARCINOMAS USING IRGD AS A TUMOR MARKER BOOSTER” (Piiper, Albrecht, priority 2020, dated 2021).

Tests used:
[1] = in vivo
[2] = human, in vivo

Q: Which “toxicity associated with administration” value [1] does the source give for N=C(N)NCCC[C@@H]1NC(=O)[C@@H](N)CSSC[C@@H](C(=O)O)NC(=O)[C@H](CC(=O)O)NC(=O)[C@@H]2CCCN2C(=O)CNC(=O)[C@H](CCCCN)NC(=O)[C@H](CC(=O)O)NC(=O)CNC1=O [iRGD, CRGDKGPDC (SEQ ID No. 1)] here?
A: no toxicity

Q: And the toxicity in humans [2]?
A: low toxicity
